Results: article PMC8909834, “An Orally Bioavailable and Highly Efficacious Inhibitor of CDK9/FLT3 for the Treatment of Acute Myeloid Leukemia” (Cancers, 2022)

Tests used:
Assay in all cases: Kinase Hotspot radiolabel assay
Type in all cases: biochemical
Conditions in all cases: read-out: % Residual Activity
PIM2 = molecular target: T1, PIM2 (Homo sapiens, UniProt Q9P1W9)
T1 construct: purchased Reaction Biology Corporation (Kinase HotSpot)
Summary of the method: (§1)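 Inhibition measured by a radiolabel Hotspot kinase assay as part of a 369-kinase specificity panel, with the compound at 1 µM. Kinases inhibited by more than 90% went on to Ki determination.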

PKN2/PRK2 = molecular target: T2, PKN2/PRK2 (Homo sapiens, UniProt Q16513)
T2 construct: purchased Reaction Biology Corporation (Kinase HotSpot)
T2 sequence (Q16513 whole entry): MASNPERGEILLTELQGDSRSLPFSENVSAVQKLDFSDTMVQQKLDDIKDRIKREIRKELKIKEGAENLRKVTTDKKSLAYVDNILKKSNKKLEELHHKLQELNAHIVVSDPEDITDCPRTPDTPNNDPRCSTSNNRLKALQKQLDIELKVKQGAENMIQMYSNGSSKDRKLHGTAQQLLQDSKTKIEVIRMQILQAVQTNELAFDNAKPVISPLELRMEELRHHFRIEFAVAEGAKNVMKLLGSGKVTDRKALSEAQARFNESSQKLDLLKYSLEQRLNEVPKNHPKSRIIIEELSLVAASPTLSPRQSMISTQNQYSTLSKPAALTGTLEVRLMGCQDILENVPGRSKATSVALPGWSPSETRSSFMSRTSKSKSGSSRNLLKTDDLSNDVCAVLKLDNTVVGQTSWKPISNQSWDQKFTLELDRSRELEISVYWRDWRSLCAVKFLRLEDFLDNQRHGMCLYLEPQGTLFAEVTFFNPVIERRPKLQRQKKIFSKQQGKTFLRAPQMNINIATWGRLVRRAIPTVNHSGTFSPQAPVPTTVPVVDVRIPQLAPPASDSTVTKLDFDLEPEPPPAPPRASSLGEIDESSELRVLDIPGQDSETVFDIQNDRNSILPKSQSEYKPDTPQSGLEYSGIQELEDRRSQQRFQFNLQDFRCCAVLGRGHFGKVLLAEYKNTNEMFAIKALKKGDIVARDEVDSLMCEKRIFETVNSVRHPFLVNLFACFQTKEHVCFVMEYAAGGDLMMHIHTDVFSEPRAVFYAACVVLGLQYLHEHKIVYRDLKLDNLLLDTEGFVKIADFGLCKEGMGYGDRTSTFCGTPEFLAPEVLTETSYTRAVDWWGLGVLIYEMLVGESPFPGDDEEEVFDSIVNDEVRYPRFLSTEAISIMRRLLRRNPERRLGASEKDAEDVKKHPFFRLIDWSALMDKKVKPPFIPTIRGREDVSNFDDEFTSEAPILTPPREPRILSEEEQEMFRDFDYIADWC
Summary of the method: as §1

ERN2/IRE2 = molecular target: T3, ERN2/IRE2 (Homo sapiens, UniProt Q76MJ5)
T3 construct: purchased Reaction Biology Corporation (Kinase HotSpot)
T3 sequence (Q76MJ5 35-926): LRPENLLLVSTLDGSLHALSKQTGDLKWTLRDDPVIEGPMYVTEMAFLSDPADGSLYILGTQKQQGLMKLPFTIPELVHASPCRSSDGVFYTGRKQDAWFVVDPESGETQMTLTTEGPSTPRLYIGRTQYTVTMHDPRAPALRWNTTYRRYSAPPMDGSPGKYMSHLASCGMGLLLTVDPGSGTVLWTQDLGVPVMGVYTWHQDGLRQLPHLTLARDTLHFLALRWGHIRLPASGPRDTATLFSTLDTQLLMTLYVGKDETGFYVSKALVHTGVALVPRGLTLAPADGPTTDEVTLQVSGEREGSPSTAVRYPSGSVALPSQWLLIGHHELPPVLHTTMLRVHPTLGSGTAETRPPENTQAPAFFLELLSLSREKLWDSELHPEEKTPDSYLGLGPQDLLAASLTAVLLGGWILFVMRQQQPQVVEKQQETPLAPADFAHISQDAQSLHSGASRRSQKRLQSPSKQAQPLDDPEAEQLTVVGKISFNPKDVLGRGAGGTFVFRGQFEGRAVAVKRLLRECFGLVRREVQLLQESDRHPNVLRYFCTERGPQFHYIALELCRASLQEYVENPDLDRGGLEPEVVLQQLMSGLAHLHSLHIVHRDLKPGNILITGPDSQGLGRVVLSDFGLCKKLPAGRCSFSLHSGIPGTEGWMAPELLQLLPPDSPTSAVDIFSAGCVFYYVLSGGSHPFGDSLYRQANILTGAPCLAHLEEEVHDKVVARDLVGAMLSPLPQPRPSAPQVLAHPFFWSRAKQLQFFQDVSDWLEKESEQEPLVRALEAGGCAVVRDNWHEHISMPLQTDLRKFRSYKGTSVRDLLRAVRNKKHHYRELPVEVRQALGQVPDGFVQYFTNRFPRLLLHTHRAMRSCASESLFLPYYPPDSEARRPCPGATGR
Summary of the method: as §1

MEK2 = molecular target: T4, MEK2 (Homo sapiens, UniProt P36507)
T4 construct: purchased Reaction Biology Corporation (Kinase HotSpot)
T4 sequence (P36507 whole entry): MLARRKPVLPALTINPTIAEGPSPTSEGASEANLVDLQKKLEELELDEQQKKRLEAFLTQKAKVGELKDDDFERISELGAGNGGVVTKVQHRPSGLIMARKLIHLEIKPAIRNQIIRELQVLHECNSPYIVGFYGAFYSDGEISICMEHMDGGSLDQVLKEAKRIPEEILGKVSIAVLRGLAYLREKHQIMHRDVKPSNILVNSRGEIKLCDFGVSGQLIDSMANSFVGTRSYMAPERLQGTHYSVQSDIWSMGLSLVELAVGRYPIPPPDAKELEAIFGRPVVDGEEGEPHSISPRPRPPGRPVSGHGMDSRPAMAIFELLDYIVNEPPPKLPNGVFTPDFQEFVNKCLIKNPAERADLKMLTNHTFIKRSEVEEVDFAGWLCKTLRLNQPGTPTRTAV
Summary of the method: as §1

CAMK2g = molecular target: T5, CAMK2g (Homo sapiens, UniProt Q13555)
T5 construct: purchased Reaction Biology Corporation (Kinase HotSpot)
Summary of the method: as §1

RIPK4 = molecular target: T6, RIPK4 (Homo sapiens, UniProt P57078)
T6 construct: purchased Reaction Biology Corporation (Kinase HotSpot)
Summary of the method: as §1

PDGFRb = molecular target: T7, PDGFRb (Homo sapiens, UniProt P09619)
T7 construct: purchased Reaction Biology Corporation (Kinase HotSpot)
T7 sequence (P09619 33-1106): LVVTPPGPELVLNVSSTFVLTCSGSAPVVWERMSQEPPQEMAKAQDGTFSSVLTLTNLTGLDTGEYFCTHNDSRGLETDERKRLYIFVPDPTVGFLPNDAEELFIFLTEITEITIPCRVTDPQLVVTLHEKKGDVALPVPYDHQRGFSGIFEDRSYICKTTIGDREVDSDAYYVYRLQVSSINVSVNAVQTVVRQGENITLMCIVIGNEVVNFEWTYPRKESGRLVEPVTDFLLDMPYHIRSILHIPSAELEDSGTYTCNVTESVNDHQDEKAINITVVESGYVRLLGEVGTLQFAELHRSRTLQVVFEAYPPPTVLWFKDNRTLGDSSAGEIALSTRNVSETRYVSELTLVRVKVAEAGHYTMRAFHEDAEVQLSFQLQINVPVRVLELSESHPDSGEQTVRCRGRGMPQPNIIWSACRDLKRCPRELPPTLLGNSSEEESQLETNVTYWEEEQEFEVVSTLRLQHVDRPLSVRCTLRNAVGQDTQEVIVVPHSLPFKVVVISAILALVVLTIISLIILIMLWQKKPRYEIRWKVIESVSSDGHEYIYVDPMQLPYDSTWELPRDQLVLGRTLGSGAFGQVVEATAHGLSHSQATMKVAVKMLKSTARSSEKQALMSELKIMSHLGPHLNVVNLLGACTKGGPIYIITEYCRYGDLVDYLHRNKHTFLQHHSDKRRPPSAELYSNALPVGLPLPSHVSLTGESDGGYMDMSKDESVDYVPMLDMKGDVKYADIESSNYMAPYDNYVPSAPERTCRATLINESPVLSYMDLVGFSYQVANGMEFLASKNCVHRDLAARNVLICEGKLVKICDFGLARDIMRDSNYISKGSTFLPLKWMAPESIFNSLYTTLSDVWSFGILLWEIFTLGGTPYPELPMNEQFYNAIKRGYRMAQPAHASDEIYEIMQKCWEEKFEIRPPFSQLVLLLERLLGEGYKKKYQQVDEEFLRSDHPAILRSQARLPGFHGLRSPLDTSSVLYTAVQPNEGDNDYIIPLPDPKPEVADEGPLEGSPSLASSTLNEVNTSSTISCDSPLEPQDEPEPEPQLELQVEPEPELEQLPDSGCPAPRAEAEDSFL
Summary of the method: as §1

TTBK1 = molecular target: T8, TTBK1 (Homo sapiens, UniProt Q5TCY1)
T8 construct: purchased Reaction Biology Corporation (Kinase HotSpot)
T8 sequence (Q5TCY1 whole entry): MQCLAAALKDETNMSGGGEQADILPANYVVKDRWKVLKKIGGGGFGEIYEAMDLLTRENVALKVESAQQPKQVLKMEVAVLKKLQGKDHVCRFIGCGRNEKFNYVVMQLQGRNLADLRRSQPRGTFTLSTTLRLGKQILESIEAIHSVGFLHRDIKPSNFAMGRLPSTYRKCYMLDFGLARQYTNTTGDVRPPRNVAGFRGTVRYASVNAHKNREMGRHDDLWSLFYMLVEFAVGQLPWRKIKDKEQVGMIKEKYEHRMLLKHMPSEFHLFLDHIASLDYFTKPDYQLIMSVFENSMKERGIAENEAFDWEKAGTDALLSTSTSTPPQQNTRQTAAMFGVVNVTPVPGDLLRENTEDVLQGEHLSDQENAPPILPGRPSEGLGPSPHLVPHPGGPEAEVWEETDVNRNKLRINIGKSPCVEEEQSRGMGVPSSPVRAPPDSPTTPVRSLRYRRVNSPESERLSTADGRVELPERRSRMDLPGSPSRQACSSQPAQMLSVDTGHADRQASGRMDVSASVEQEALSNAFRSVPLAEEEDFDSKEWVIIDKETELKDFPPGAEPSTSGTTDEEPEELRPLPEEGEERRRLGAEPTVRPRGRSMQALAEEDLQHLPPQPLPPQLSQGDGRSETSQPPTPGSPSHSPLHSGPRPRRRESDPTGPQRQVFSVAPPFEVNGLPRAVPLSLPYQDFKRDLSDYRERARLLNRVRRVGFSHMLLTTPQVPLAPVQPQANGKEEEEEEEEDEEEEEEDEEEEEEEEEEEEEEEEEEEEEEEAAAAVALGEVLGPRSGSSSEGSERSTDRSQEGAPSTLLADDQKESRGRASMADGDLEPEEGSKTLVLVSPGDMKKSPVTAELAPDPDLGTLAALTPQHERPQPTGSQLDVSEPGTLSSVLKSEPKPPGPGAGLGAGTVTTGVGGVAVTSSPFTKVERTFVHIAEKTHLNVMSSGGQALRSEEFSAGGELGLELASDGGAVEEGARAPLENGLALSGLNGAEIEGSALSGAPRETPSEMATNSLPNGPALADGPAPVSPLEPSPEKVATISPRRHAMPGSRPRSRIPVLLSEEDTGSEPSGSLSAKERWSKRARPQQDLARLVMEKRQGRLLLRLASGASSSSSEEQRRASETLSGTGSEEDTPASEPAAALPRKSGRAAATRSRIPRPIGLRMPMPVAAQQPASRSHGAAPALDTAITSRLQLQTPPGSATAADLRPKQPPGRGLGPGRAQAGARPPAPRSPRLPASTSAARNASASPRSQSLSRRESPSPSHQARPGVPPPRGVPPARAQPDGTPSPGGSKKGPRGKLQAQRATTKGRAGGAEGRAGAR
Summary of the method: as §1

ZAP70 = molecular target: T9, ZAP70 (Homo sapiens, UniProt P43403)
T9 construct: purchased Reaction Biology Corporation (Kinase HotSpot)
Summary of the method: as §1

GSK3b = molecular target: T10, GSK3b (Homo sapiens, UniProt P49841)
T10 construct: purchased Reaction Biology Corporation (Kinase HotSpot)
Summary of the method: as §1

CAMK1a = molecular target: T11, CAMK1a (Homo sapiens, UniProt Q14012)
T11 construct: purchased Reaction Biology Corporation (Kinase HotSpot)
T11 sequence (Q14012 whole entry): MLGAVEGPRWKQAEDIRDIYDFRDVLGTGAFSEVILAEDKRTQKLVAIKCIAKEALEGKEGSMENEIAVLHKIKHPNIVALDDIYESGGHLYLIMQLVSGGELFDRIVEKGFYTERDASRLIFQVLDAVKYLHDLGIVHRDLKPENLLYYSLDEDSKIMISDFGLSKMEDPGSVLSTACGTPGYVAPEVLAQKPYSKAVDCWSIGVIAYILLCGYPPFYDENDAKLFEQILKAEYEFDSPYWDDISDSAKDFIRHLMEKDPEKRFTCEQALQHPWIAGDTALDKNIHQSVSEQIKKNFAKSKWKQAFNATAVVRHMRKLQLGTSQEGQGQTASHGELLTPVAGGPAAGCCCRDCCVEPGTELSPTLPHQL
Summary of the method: as §1

YES/YES1 = molecular target: T12, YES/YES1 (Homo sapiens, UniProt P07947)
T12 construct: purchased Reaction Biology Corporation (Kinase HotSpot)
Summary of the method: as §1

RIPK5 = molecular target: T13, RIPK5 (Homo sapiens, UniProt Q6XUX3)
T13 construct: purchased Reaction Biology Corporation (Kinase HotSpot)
Summary of the method: as §1

MAPKAPK5/PRAK = molecular target: T14, MAPKAPK5/PRAK (Homo sapiens, UniProt Q8IW41)
T14 construct: purchased Reaction Biology Corporation (Kinase HotSpot)
Summary of the method: as §1

PKCzeta = molecular target: T15, PKCzeta (Homo sapiens, UniProt Q05513)
T15 construct: purchased Reaction Biology Corporation (Kinase HotSpot)
Summary of the method: as §1

EPHB3 = molecular target: T16, EPHB3 (Homo sapiens, UniProt P54753)
T16 construct: purchased Reaction Biology Corporation (Kinase HotSpot)
Summary of the method: as §1

EPHA2 = molecular target: T17, EPHA2 (Homo sapiens, UniProt P29317)
T17 construct: purchased Reaction Biology Corporation (Kinase HotSpot)
Summary of the method: as §1

DYRK2 = molecular target: T18, DYRK2 (Homo sapiens, UniProt Q92630)
T18 construct: purchased Reaction Biology Corporation (Kinase HotSpot)
Summary of the method: as §1

PKCb2 = molecular target: T19, PKCb2 (Homo sapiens, UniProt P05771)
T19 construct: purchased Reaction Biology Corporation (Kinase HotSpot)
Summary of the method: as §1

EPHA6 = molecular target: T20, EPHA6 (Homo sapiens, UniProt Q9UF33)
T20 construct: purchased Reaction Biology Corporation (Kinase HotSpot)
Summary of the method: as §1

GRK6 = molecular target: T21, GRK6 (Homo sapiens, UniProt P43250)
T21 construct: purchased Reaction Biology Corporation (Kinase HotSpot)
Summary of the method: as §1

ERBB2/HER2 = molecular target: T22, ERBB2/HER2 (Homo sapiens, UniProt P04626)
T22 construct: purchased Reaction Biology Corporation (Kinase HotSpot)
Summary of the method: as §1

GRK5 = molecular target: T23, GRK5 (Homo sapiens, UniProt P34947)
T23 construct: purchased Reaction Biology Corporation (Kinase HotSpot)
Summary of the method: as §1

PASK = molecular target: T24, PASK (Homo sapiens, UniProt Q96RG2)
T24 construct: purchased Reaction Biology Corporation (Kinase HotSpot)
Summary of the method: as §1

MEK3 = molecular target: T25, MEK3 (Homo sapiens, UniProt P46734)
T25 construct: purchased Reaction Biology Corporation (Kinase HotSpot)
Summary of the method: as §1

MKK6 = molecular target: T26, MKK6 (Homo sapiens, UniProt P52564)
T26 construct: purchased Reaction Biology Corporation (Kinase HotSpot)
Summary of the method: as §1

MYO3b = molecular target: T27, MYO3b (Homo sapiens, UniProt Q8WXR4)
T27 construct: purchased Reaction Biology Corporation (Kinase HotSpot)
Summary of the method: as §1

CAMK2d = molecular target: T28, CAMK2d (Homo sapiens, UniProt Q13557)
T28 construct: purchased Reaction Biology Corporation (Kinase HotSpot)
Summary of the method: as §1

GRK2 = molecular target: T29, GRK2 (Homo sapiens, UniProt P25098)
T29 construct: purchased Reaction Biology Corporation (Kinase HotSpot)
Summary of the method: as §1

EGFR = molecular target: T30, EGFR (Homo sapiens, UniProt P00533)
T30 construct: purchased Reaction Biology Corporation (Kinase HotSpot)
Summary of the method: as §1

## Cc1cnc(N[C@H]2CC[C@H](N)CC2)nc1-c1cnc2ccc(-c3ccccc3)cn12 [CDDD11-8]
PIM2
  remaining activity at 1 µM: 94.5%
PKN2/PRK2
  remaining activity at 1 µM: 88.3%
ERN2/IRE2
  remaining activity at 1 µM: 45.4%
MEK2
  remaining activity at 1 µM: 79.1%
CAMK2g
  remaining activity at 1 µM: 96.8%
RIPK4
  remaining activity at 1 µM: 72.6%
PDGFRb
  remaining activity at 1 µM: 40.2%
TTBK1
  remaining activity at 1 µM: 89.5%
ZAP70
  remaining activity at 1 µM: 101%
GSK3b
  remaining activity at 1 µM: 94.5%
CAMK1a
  remaining activity at 1 µM: 80.7%
YES/YES1
  remaining activity at 1 µM: 70%
RIPK5
  remaining activity at 1 µM: 93%
MAPKAPK5/PRAK
  remaining activity at 1 µM: 99.4%
PKCzeta
  remaining activity at 1 µM: 89.2%
EPHB3
  remaining activity at 1 µM: 92.7%
EPHA2
  remaining activity at 1 µM: 86.4%
DYRK2
  remaining activity at 1 µM: 12.7%
PKCb2
  remaining activity at 1 µM: 121%
EPHA6
  remaining activity at 1 µM: 88.4%
GRK6
  remaining activity at 1 µM: 98.5%
ERBB2/HER2
  remaining activity at 1 µM: 101%
GRK5
  remaining activity at 1 µM: 88.9%
PASK
  remaining activity at 1 µM: 43.1%
MEK3
  remaining activity at 1 µM: 71.5%
MKK6
  remaining activity at 1 µM: 95.7%
MYO3b
  remaining activity at 1 µM: 58.4%
CAMK2d
  remaining activity at 1 µM: 17.3%
GRK2
  remaining activity at 1 µM: 95.9%
EGFR
  remaining activity at 1 µM: 82.2%
